Data taken from patent US20110071117A1, “COMBINATIONS OF ANTIOXIDANTS AND ANTI-INFLAMMATORY DRUGS IN THE TREATMENT OF INFLAMMATORY BOWEL DISEASE” (The Board of Regents of the University of Oklahoma, priority 2008, published 2011).

Experiments:
TNBS colitis [1] = assay: Macroscopic injury score of distal colon in TNBS colitis, rectal (enema) treatment; format: in vivo, Male Sprague Dawley rats; conditions: 11 days after TNBS, 8 days of daily rectal treatment, mean±SEM, scale of Table 1, TNBS alone 5.9±0.6
Description: (§1) Male Sprague Dawley rats weighing 200-250 grams were housed in the animal facility in cages containing contact bedding. Rats were deprived of food but not water for 24 hrs prior to the induction of colitis. Institutional approval for experimental protocols was provided by the research and animal care committees of the Research Services at the Oklahoma City Veterans Administration Medical Center.
(§2) Fasted animals were lightly anesthetized with isoflurane and then subjected to enema administration of TNBS and subsequently study drugs. The experimental protocol is similar to that previously described (20). The tip of polyethylene catheter was advanced transanally 8 cm to the distal colon and a single dose of TNBS (Sigma, St. Louis, Mo.), was instilled intraluminally (15 mg of TNBS dissolved in a 0.6 ml volume of 50% ethanol) to induce colitis. Following the administration of TNBS the animals were maintained in a head-down position for approximately 60 seconds to prevent leakage of the infusate.
Three days after TNBS dosing rats were randomly assigned to receive one of the following treatments by enema in a manner similar to that used for TNBS administration. […]
Inflammation was present if the mucosa was erythematous. […] Once macroscopic damage was assessed full thickness colonic tissue samples were taken from inflamed areas and processed for histology.

[2] = tested on: cytokine gene expression (IL-1A, IL-1B, 1L-04, IL-6 and TNFα); conditions: similarly designed studies; cited from earlier work
MPO activity = assay: Colonic inflammation by MPO assay in distal colon tissue, TNBS colitis; format: in vivo, Male Sprague Dawley rats; conditions: 11 days after TNBS, 8 days of treatment; mean±SEM; TNBS colitis 703+130
Description: Fasted animals were lightly anesthetized with isoflurane and then subjected to enema administration of TNBS and subsequently study drugs. The experimental protocol is similar to that previously described (20). The tip of polyethylene catheter was advanced […] 8 cm to the distal colon and a single dose of TNBS (Sigma, St. […] Following the administration of TNBS the animals were maintained in a head-down position for approximately 60 seconds to prevent leakage of the infusate. Three days after TNBS dosing rats were randomly assigned to receive one of the following treatments by enema in a manner similar to that used for TNBS administration. The TNBS treated animals received one of the following therapies 5-ASA (100 mg/kg) alone or 5-ASA in combination with one of the following: vitamin C (100 mg/kg), phenyl butylnitrone (PBN; 30 mg/kg) and vitamin E (a tocopherol; 50 mg/kg solubilized in DMSO). The doses of selected antioxidants were derived from the literature in which these agents had been used in experimental models of disease or IBD (19, 22, 23). Comparator groups included TNBS dosed rats that received 8 doses of rectal saline and saline treated controls. Rats were treated for 8 days and then sacrificed. MPO activity was measured in colonic tissue samples by colorimetric assay. […] The absorbance changes were read at 450 nm and recorded. Results are expressed as nanograms per gram of tissue. […]

TNBS colitis [3] = assay: Microscopic (histological) injury of distal colon in TNBS colitis, rectal (enema) treatment; format: in vivo, Male Sprague Dawley rats
Description: as §1, §2
Three days after TNBS dosing rats were randomly assigned to receive one of the following treatments by enema in a manner similar to that used for TNBS administration. The TNBS treated animals received one of the following therapies 5-ASA (100 mg/kg) alone or 5-ASA in combination with one of the following: vitamin C (100 mg/kg), phenyl butylnitrone (PBN; 30 mg/kg) and vitamin E (a tocopherol; 50 mg/kg solubilized in DMSO). The doses of selected antioxidants were derived from the literature in which these agents had been used in experimental models of disease or IBD (19, 22, 23). Comparator groups included TNBS dosed rats that received 8 doses of rectal saline and saline treated controls. Rats were treated for 8 days and then sacrificed.
Histological assessment was used to measure colonic injury. Colonic tissue samples taken from the distal colon were immersed in 10% phosphate buffered formalin and subsequently embedded in paraffin. Sections of 3 micron thickness were stained with hematoxylin and eosin. The slides were then evaluated by a pathologist for epithelial damage, architectural changes, polymorphonuclear leukocyte (PMN) infiltration, mononuclear cell infiltration, and ulceration. The microscopic features of colitis were graded on a 0-3 scale with 0 being normal and 3 representing severe or most intense abnormality. In addition to scoring individual features of colitis, an aggregate score of colitis for each rat was tabulated by adding together individual parameter scores, thus, providing a global assessment of colitis.

[4] = distal colonic specimen, 8 days of topical treatment begun 3 days after TNBS

Question: What does the source list for Nc1ccc(O)c(C(=O)O)c1 [5-ASA, 5-aminosalicylic acid]?
Answer: macroscopic injury score (TNBS colitis [1]): 3.8±0.4; cytokine gene expression elicited by TNBS [2]: did not achieve this degree of statistical distinction; MPO activity in the distal colon (MPO activity): 354±81 ng/gm; global microscopic injury score (TNBS colitis [3]; distal colon, 11 days after TNBS, 8 days of daily rectal treatment, mean±SEM, sum of indices graded 0-3, TNBS alone 13.3±0.5): 9.1±1.0; inflammation in representative photomicrograph (TNBS colitis [3]; [4]): mild inflammation in the submucosa; mucosal ulceration in representative photomicrograph (TNBS colitis [3]; [4]): an area of mucosal ulceration; reduction of global microscopic colitis vs TNBS (TNBS colitis [3]; printed as reduction/decrease): 31%

Question: Which “cytokine gene expression elicited by TNBS” value [2] does the source give for CC(=O)N[C@@H](CS)C(=O)O [NAC, N-acetylcysteine] here?
Answer: did not achieve this degree of statistical distinction
